Data reported in ChEMBL document CHEMBL4382265, “(Pyrrolo-pyridin-5-yl)benzamides: BBB permeable monoamine oxidase B inhibitors with neuroprotective effect on cortical neurons” (Eur J Med Chem, 2019).
Converted amounts (≈) assume the structure as drawn. The source made the active and inactive calls. No cut-off for these calls is given here.

What was measured:
Homo sapiens = species: Homo sapiens; assay: Selectivity index, ratio of IC50 for human recombinant MAO-A expressed in baculovirus infected BTI-TN-5B1-4 insect cells to IC50 for human recombinant MAO-B expressed in baculovirus infected BTI-TN-5B1-4 insect cells
[1] = target: T1, Amine oxidase [flavin-containing] B (Rattus norvegicus, UniProt P19643)
T1 sequence (P19643 whole entry): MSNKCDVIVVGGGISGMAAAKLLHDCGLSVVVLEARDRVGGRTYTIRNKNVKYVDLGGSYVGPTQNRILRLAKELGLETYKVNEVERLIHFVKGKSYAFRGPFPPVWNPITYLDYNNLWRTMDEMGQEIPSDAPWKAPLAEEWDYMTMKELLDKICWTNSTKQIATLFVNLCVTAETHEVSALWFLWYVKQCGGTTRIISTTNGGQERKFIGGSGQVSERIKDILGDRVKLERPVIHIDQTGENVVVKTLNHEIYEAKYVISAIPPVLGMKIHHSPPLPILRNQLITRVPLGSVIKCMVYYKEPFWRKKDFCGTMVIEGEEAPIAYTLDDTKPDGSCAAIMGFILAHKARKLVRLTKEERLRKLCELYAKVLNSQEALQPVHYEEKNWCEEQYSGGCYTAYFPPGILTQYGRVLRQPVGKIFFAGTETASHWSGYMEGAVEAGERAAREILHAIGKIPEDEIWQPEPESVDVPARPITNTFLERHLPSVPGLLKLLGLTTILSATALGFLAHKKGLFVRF
Description: Inhibition of Sprague-Dawley rat liver MAO-B using p-tyramine as substrate preincubated for 15 mins and measured after 45 mins by resorufin-based fluorescence assay

[2] = Selectivity ratio of IC50 for Sprague-Dawley rat liver MAO-B to human recombinant MAO-B expressed in baculovirus infected BTI-TN-5B1-4 insect cells
[3] = target: T2, Amine oxidase [flavin-containing] B (Homo sapiens, UniProt P27338); assay: Inhibition of human recombinant MAO-B expressed in baculovirus infected BTI-TN-5B1-4 insect cells using p-tyramine as substrate preincubated for 15 mins and measured after 45 mins by Cheng-Prusoff equation analysis
T2 sequence (P27338 whole entry): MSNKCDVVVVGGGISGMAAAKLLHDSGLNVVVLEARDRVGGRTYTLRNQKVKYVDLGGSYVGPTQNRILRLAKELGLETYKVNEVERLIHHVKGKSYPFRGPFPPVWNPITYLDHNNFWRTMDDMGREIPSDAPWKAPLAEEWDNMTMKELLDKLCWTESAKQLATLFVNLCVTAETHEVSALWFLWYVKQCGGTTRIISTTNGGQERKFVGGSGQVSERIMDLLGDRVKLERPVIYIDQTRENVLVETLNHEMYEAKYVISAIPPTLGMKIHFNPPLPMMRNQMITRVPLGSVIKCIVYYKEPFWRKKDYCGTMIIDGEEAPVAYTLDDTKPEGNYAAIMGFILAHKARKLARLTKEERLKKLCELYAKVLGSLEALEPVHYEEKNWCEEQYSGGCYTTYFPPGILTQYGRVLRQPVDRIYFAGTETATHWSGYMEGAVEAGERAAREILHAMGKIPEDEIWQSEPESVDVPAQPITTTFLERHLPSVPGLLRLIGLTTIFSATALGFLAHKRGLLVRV

[4] = target: T3, Amine oxidase [flavin-containing] A (Rattus norvegicus, UniProt P21396)
T3 sequence (P21396 whole entry): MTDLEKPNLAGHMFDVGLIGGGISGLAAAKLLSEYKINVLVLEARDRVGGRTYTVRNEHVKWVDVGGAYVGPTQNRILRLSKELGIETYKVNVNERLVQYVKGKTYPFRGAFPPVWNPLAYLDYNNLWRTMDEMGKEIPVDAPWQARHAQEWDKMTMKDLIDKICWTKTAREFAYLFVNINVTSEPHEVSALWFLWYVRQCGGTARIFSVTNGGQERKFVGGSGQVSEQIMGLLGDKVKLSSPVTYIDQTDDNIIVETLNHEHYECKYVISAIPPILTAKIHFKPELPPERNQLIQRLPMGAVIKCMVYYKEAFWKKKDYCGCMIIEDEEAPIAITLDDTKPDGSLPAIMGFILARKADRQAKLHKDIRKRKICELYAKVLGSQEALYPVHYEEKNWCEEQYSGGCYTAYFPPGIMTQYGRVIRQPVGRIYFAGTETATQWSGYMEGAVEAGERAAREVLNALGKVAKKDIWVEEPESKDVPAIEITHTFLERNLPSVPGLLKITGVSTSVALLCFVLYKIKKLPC
Description: Inhibition of Sprague-Dawley rat liver MAO-A using p-tyramine as substrate preincubated for 15 mins and measured after 45 mins by resorufin-based fluorescence assay

[5] = target: T4, Amine oxidase [flavin-containing] A (Homo sapiens, UniProt P21397); assay: biochemical
T4 sequence (P21397 whole entry): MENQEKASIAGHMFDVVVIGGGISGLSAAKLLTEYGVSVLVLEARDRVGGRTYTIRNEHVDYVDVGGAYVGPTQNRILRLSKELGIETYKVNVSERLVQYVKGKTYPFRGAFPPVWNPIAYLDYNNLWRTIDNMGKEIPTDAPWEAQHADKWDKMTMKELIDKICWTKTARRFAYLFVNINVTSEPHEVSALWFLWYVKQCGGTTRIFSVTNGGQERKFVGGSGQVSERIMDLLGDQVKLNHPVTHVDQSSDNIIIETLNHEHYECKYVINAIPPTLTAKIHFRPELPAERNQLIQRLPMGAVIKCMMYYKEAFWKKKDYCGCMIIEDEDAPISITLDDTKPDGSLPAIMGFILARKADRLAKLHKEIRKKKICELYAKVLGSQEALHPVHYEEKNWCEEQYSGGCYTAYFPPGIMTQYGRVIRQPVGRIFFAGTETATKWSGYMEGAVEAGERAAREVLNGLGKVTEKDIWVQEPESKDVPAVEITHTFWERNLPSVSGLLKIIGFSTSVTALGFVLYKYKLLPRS
Description: Inhibition of human recombinant MAO-A expressed in baculovirus infected BTI-TN-5B1-4 insect cells using p-tyramine as substrate preincubated for 15 mins and measured after 45 mins by resorufin-based fluorescence assay

physchem [6] = conditions: n-octanol/water, pH 7.4
[7] = pampa, pH 7.4, 4 h, 10000 µM
Description: (§1) Effective permeability of the compound in prisma HT buffer at 10 mM at pH 7.4 after 4 hrs by PAMPA

[8] = target: T2, Amine oxidase [flavin-containing] B; assay: biochemical; type: cell-based, BTI-TN-5B1-4
Description: Inhibition of human recombinant MAO-B expressed in baculovirus infected BTI-TN-5B1-4 insect cells using p-tyramine as substrate preincubated for 15 mins and measured after 45 mins by resorufin-based fluorescence assay

[9] = buffer, pH 7.4, 1.5 h, 500 µM
[10] = Kinetic aqueous solubility of compound at 500 uM at pH 2 after 90 mins by UV-vis spectrophotometric analysis; type: physicochemical; conditions: buffer; for log(Kinetic_solubility): pH 2, 1.5 h, 500 µM; for solubility kinetic at 1.5 h, 500 µM: pH 2, read-out: Kinetic_solubility
in vitro = assay: in vitro; set-up: dose or concentration left out as unconfirmed; conditions: PAMPA, pH 7.4
Description: as §1

[11] = Kinetic aqueous solubility of compound at 500 uM at pH 5.5 after 90 mins by UV-vis spectrophotometric analysis; type: physicochemical; conditions: buffer; for log(Kinetic_solubility): pH 5.5, 1.5 h, 500 µM; for solubility kinetic at 1.5 h, 500 µM: pH 5.5, read-out: Kinetic_solubility
physchem [12] = conditions: buffer, pH 7.4
[13] = target: T2, Amine oxidase [flavin-containing] B; assay: Reversible inhibition of human recombinant MAO-B expressed in baculovirus infected BTI-TN-5B1-4 insect cells at IC80 using p-tyramine as substrate incubated for 20 mins followed by increase in substrate concentration up to 1 mM and measured after 300 mins by fluorescence assay
Cortical neurone [14] = assay: Neuroprotective activity in rat primary cortical neurons neurovascular unit model assessed as induction of neurite network outgrowth at 1 pM to 10 nM after 120 hrs in presence of HBMEC relative to untreated control; type: functional, cell-based
Cortical neurone [15] = assay: Neuroprotective activity in rat primary cortical neurons at 0.1 to 1 nM after 120 hrs; type: functional, cell-based
Cortical neurone [16] = assay: Neuroprotective activity in rat primary cortical neurons assessed as increase in survival at 100 nM after 120 hrs relative to untreated control; type: functional
Cortical neurone [17] = assay: Neuroprotective activity in rat primary cortical neurons assessed as induction of neurite network outgrowth at 10 to 100 nM after 120 hrs; type: functional, cell-based
Cortical neurone [18] = assay: Neuroprotective activity in rat primary cortical neurons neurovascular unit model assessed as increase in survival at 1 pM to 10 nM after 120 hrs in presence of HBMEC relative to untreated control; type: functional, cell-based
Cortical neurone [19] = assay: Neuroprotective activity in rat primary cortical neurons assessed as induction of neurite network outgrowth at 1 to 10 pM after 120 hrs; type: functional, cell-based
Cortical neurone [20] = assay: Neuroprotective activity in rat primary cortical neurons assessed as increase in survival at 1 nM after 120 hrs relative to untreated control; type: functional
Cortical neurone [21] = assay: Neuroprotective activity in rat primary cortical neurons neurovascular unit model assessed as induction of neurite network outgrowth at 150 to 300 nM after 120 hrs in presence of HBMEC relative to untreated control; type: functional, cell-based
Cortical neurone [22] = assay: Neuroprotective activity in rat primary cortical neurons neurovascular unit model assessed as increase in survival at 150 to 300 nM after 120 hrs in presence of HBMEC relative to untreated control; type: functional, cell-based

SMILES: O=C(Nc1cc2cc[nH]c2cn1)c1ccc(F)c(F)c1
- Ratio IC50 (Homo sapiens): > 36
- IC50 [1]: 1300 nM
- Ratio IC50 [2]: 1.1
- Ki [3]: 122 nM

SMILES: O=C(Nc1cc2cc[nH]c2cn1)c1ccc(F)c(Cl)c1
- Ratio IC50 (Homo sapiens): > 138
- IC50 [4]: > 10000 nM
- Ratio IC50 [2]: 1.1
- IC50 [5]: > 10000 nM
- Ki [3]: 31.8 nM

SMILES: O=C(Nc1ccc2[nH]ncc2c1)c1c(F)cccc1Cl
- Ki [3]: 1460 nM

SMILES: O=C(Nc1ccc2[nH]ccc2n1)c1ccc(F)c(F)c1
- Ratio IC50 (Homo sapiens): > 217
- Ratio IC50 [2]: 1.1
- IC50 [5]: > 10000 nM
- Ki [3]: 20.4 nM

SMILES: O=C(Nc1cc2cc[nH]c2cn1)c1ccc(Cl)c(Cl)c1
- Ratio IC50 (Homo sapiens): > 346
- logD at 1.5 h (physchem [6]): 3.04
- log(permeability) [7]: -3.96
- IC50 [8]: 28.9 nM
- log(Kinetic_solubility) [9]: -4.19
- log(Kinetic_solubility) [10]: -3.37
- solubility kinetic at 1.5 h, 500 µM [10]: 426 µM (≈ 130 µg/mL)
- Papp at 4 h (in vitro): 111 ×10⁻⁶ cm/s
- log(Kinetic_solubility) [11]: -4.16
- solubility kinetic at 1.5 h, 500 µM [11]: 68.8 µM (≈ 21.1 µg/mL)
- Ratio IC50 [2]: 1.1
- IC50 [5]: > 10000 nM
- Ki [3]: 12.8 nM
- solubility kinetic at 1.5 h, 500 µM (physchem [12]): 65.1 µM (≈ 19.9 µg/mL)

SMILES: O=C(Nc1ccc2[nH]ccc2n1)c1ccc(F)c(Cl)c1
- Ratio IC50 (Homo sapiens): > 3060
- logD at 1.5 h (physchem [6]): 2.32
- log(permeability) [7]: -3.96
- log(Kinetic_solubility) [9]: -3.92
- log(Kinetic_solubility) [10]: -3.33
- solubility kinetic at 1.5 h, 500 µM [10]: 501 µM (≈ 145 µg/mL)
- Papp at 4 h (in vitro): 110 ×10⁻⁶ cm/s
- log(Kinetic_solubility) [11]: -3.96
- solubility kinetic at 1.5 h, 500 µM [11]: 111 µM (≈ 32.1 µg/mL)
- Ratio IC50 [2]: 1.1
- IC50 [5]: > 10000 nM
- Ki [3]: 1.45 nM
- solubility kinetic at 1.5 h, 500 µM (physchem [12]): 119 µM (≈ 34.5 µg/mL)
- inhibition (INH) [13]: Active

SMILES: O=C(Cc1ccc(Cl)c(Cl)c1)Nc1ccc2[nH]ccc2c1
- Ki [3]: 390 nM

SMILES: CC(=O)N[C@H]1CC(=O)N(c2ccc(OCc3cccc(F)c3)cc2)C1 [SEMBRAGILINE]
- Ratio IC50 (Homo sapiens): 653
- IC50 [1]: 14.7 nM
- IC50 [4]: 7700 nM
- IC50 [8]: 5.9 nM

SMILES: O=C(Nc1ccc2[nH]ncc2c1)c1cccc(Cl)c1Cl
- Ki [3]: 1140 nM

SMILES: O=C(Nc1ccc2[nH]ccc2n1)c1ccc(Cl)c(Cl)c1
- Activity (Cortical neurone [14]): Active
- Activity (Cortical neurone [15]): Active
- logD at 1.5 h (physchem [6]): 3.19
- log(permeability) [7]: -3.97
- Efficacy (Cortical neurone [16]): 11%
- Activity (Cortical neurone [17]): inactive
- log(Kinetic_solubility) [9]: -4.4
- Activity (Cortical neurone [18]): Active
- Activity (Cortical neurone [19]): Active
- log(Kinetic_solubility) [10]: -3.33
- solubility kinetic at 1.5 h, 500 µM [10]: 471 µM (≈ 144 µg/mL)
- Papp at 4 h (in vitro): 107 ×10⁻⁶ cm/s
- log(Kinetic_solubility) [11]: -4.37
- solubility kinetic at 1.5 h, 500 µM [11]: 42.9 µM (≈ 13.1 µg/mL)
- IC50 [5]: > 10000 nM
- Efficacy (Cortical neurone [20]): 31%
- solubility kinetic at 1.5 h, 500 µM (physchem [12]): 39.8 µM (≈ 12.2 µg/mL)

SMILES: O=C(Nc1cc2cc[nH]c2cn1)c1ccc(Cl)c(F)c1
- Ratio IC50 (Homo sapiens): > 82
- IC50 [1]: 574 nM
- IC50 [4]: > 10000 nM
- IC50 [8]: 121 nM
- Ratio IC50 [2]: 1.1
- IC50 [5]: > 10000 nM
- Ki [3]: 53.5 nM

SMILES: C[C@]12CC[C@@H]3c4ccc(O)cc4CC[C@H]3[C@@H]1CC[C@@H]2O
- Activity (Cortical neurone [21]): Active
- Activity (Cortical neurone [22]): Active

SMILES: O=C(Nc1ccc2[nH]ncc2c1)c1ccc(Cl)c(Cl)c1
- Ki [3]: 5.48 nM

SMILES: O=C(Nc1ccc2[nH]ccc2n1)c1ccc(Cl)c(F)c1
- Ratio IC50 (Homo sapiens): > 917
- logD at 1.5 h (physchem [6]): 2.69
- log(permeability) [7]: -3.9
- log(Kinetic_solubility) [9]: -4.03
- log(Kinetic_solubility) [10]: -3.41
- solubility kinetic at 1.5 h, 500 µM [10]: 391 µM (≈ 113 µg/mL)
- Papp at 4 h (in vitro): 127 ×10⁻⁶ cm/s
- log(Kinetic_solubility) [11]: -4.09
- solubility kinetic at 1.5 h, 500 µM [11]: 82.1 µM (≈ 23.8 µg/mL)
- Ratio IC50 [2]: 1.1
- IC50 [5]: > 10000 nM
- Ki [3]: 4.82 nM
- solubility kinetic at 1.5 h, 500 µM (physchem [12]): 93.8 µM (≈ 27.2 µg/mL)
